Tested on: integrin α4β1 (VLA-4) on WT and IkE5Δ/Δ pre-B cells
Assay: Adhesion of adherent pre-B cells to fibronectin-coated plates with peptide blocking
Assay type: cell-based, mouse
Conditions: 400 μg/ml peptide
Protocol: Adhesion to Integrin Ligands and In Vitro FAK Inhibition Assay. Adhesion assay were performed in non-TC treated plates (BD). The plates were coated with 10 ug/ml fibronectin (FN), collagen (Col.) (Invitrogen) or BSA alone overnight at 4° C. After blocking the plates with 2% BSA for 1 h, equal number of cells were plated and incubated for the indicated time points. At the end of the assay, unbound and bound cells were harvested and enumerated. Percent adhesion was calculated by taking ratio of bound cells over total cells used in each assay.
For peptide mediated blocking of adhesion^55, equal number of cells were pretreated for 45 minutes with either 400 μg/ml G-R-G-D-S-P (SEQ ID NO:1) or the control peptide G-R-G-E-S (SEQ ID NO:2) (American Peptide Company) and plated on FN-coated TC dishes. Cells were enumerated for calculation of percent adhesion and percent inhibition.

G-R-G-D-S-P [RGD]
binding of pre-B cells to fibronectin: significantly inhibited
